Entries after “also recorded” stand apart in the source; their conditions may differ.
Molecular target: T1, human EGFR kinase (Homo sapiens, UniProt P00533)
T1 construct: The EGFR kinase domain is incubated with Ibrutinib-yne or a DMSO control at 37° C. for 1 hour; made in house
Assay: Activity-based protein fingerprinting: covalent labelling of EGFR kinase by chemical probe (PAGE, fluorescent imaging, LC-MS)
Format: binding
Method: The EGFR kinase domain is incubated with Ibrutinib-yne or a DMSO control at 37° C. for 1 hour. The EGFR kinase domain bound to Ibrutinib-yne is exposed to cysteine reduction and capping using TCEP and chloroacetamide at 37° C. for 1 hour. The product is desalted with a 7 kDa zeba column and exposed to proteolytic digestion by trypsin at 37° C. for 16 hours. The product is further conjugated with bis-biotin-DNA-SS-azide at room temperature for 30 minutes and finally exposed to DTT at 65° C. for 10 minutes.
FIGS. 5A-5C show LC-MS plots of DMSO control (FIG. 5A), Ibrutinib-yne (FIG. 5B), and Ibrutinib-yne with a DNA control molecule and DTT (FIG. 5C). The blue box represents unmodified peptide, the green box represents peptide bound to Ibrutinib-yne, and the red box represents peptide-Ibrutinib-yne-DNA adduct following disulfide reduction.
Using the steps of Example 1, EGFR kinase was detected using activity-based protein fingerprinting. The commercially available drug analog Ibrutinib-yne, which binds to the catalytic cysteine of EGFR comprises an electrophilic warhead and an alkyne moiety for the CLICK handle processing step. Purified human EGFR kinase was generated (FIG. 2A) and exposed to Ibrutinib-yne (FIG. 2B). […] The target peptide detected by this protocol LLGIC(Alk)[…]) (SEQ ID NO:1) was detected by LC-MS (FIGS. 5A-5C).

Ibrutinib-yne
LC-MS detection of target peptide LLGIC(Alk)[…] (SEQ ID NO:1) (after TCEP/chloroacetamide capping and trypsin digestion, vs DMSO control): detected only in its modified state
probe-EGFR kinase complex observed by Coomassie Blue staining and fluorescent imaging (AF647-azide) (probe or DMSO control incubated with EGFR at 37° C. for 1 hour, PAGE): desired complex was observed; also recorded: only the protein bearing Ibrutinib-yne reacted with AF647-azide

Reference: patent publication US20240118280A1 (priority 2022, published 2024)
